Data taken from US9555038B2, “Heterocycle-substituted tetracyclic compounds and methods of use thereof for the treatment of viral diseases” (Merck Sharp & Dohme Corp., priority 2013, dated 2017).
Read-outs that look alike come from different tables or passages of the source.

How the values were obtained:
HCV replicon 1A = assay: Cell-based HCV Replicon Assay A, replicon 1A
How it was run: (§1)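 2000 cells/well; 10 serial dilutions, top concentration 333.3 nM to 1.667 nM; 0.5% DMSO, 5% FBS; 3 days; lysis; multiplex TaqMan RT-PCR (NS5B/Neo plus cyclophilin), RNA from linear Ct standard curves.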

HCV replicon 1AY93H = assay: Cell-based HCV Replicon Assay A, replicon 1AY93H
How it was run: as §1

HCV replicon 2B = assay: Cell-based HCV Replicon Assay A, replicon 2B
How it was run: as §1

HCV replicon 1AQ30D = assay: Cell-based HCV Replicon Assay B, replicon 1AQ30D
Description: In an alternate assay (“Replicon Assay B”), 1000 cells were seeded per well in a 384-well collagen coated black plate from Greiner bio-one (Cat #781946) in 5% FBS. Inhibitors of this invention were added at 24 h post-seeding, and the plates were incubated for 3 days. Cells were subsequently lysed with Qiagen lysis buffer (Cat #1062731) to extract the RNA. HCV replicon RNA level was measured by real-time PCR using the RNA-to-CT kit from Applied Biosystem (Cat #4392656) and genotype-specific primers and probes. The amplicon was located within NS5B. The sequence of the PCR primers are as follows: 5B.2F, ATGGACAGGCGCCCTGA (SEQ. ID NO. 1); 5B.2R, […] (SEQ. ID NO. 2); the probe sequence was FAM-labeled CACGCCATGCGCTGCGG (SEQ. ID NO. 3). To detect genotype 1A the primer 1A F, TGCGGAACCGGTGAGTACA and 1A R, […] were used; the probe sequence was FAM-[…].
The real-time RT-PCR reactions were run on ABI PRISM 7900HT or Viia7 Sequence Detection System using the following program: 48° C. for 30 minutes, 95° C. for 10 minutes, 40 cycles of 95° C. for 15 sec, 60° C. for 1 minutes. The 50% effective concentration (EC50) was the drug concentration necessary to achieve an increase in the cycle threshold (CT) of 1 over the projected baseline CT.
Data was obtained for various compounds of the present invention using the methods described in the Example above, and is presented in the table immediately below. Data for replicons 1A, 1AY93H and 2B were obtained using Replicon Assay A and data for replicons 1AQ30D and 1B were obtained using Replicon Assay B.

HCV replicon 1B = assay: Cell-based HCV Replicon Assay B, replicon 1B
How it was run: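 EC50 defined as the drug concentration giving a CT increase of 1 above projected baseline, from real-time RT-PCR of replicon RNA using genotype-specific primers and probes. Cells were seeded in 5% FBS, dosed after 24 h and incubated 3 days before lysis.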

[1] = Hepatitis C virus, read-out: 1A Y93H IC50 (nM), replicon 1AY93H
[2] = Hepatitis C virus, read-out: 2B IC50 (nM), replicon 2B
[3] = Hepatitis C virus, read-out: 1A Q30D IC50 (nM), replicon 1AQ30D
[4] = read-out: 1A Y93H IC50, replicon 1AY93H
[5] = read-out: 1A Q30D IC50, replicon 1AQ30D

Structure (SMILES)	IC50 (HCV replicon 1A; Hepatitis C virus)	IC50 (HCV replicon 1AY93H; [1])	IC50 (HCV replicon 2B; [2])	IC50 (HCV replicon 1AQ30D; [3])	IC50 (HCV replicon 1B; Hepatitis C virus)	IC50 (HCV replicon 2B; read-out: 2B IC50, replicon 2B)	IC50 (HCV replicon 1AY93H; [4])	IC50 (HCV replicon 1A)	IC50 (HCV replicon 1AQ30D; [5])	IC50 (HCV replicon 1B)
COC(=O)N[C@H](C(=O)N1CCC[C@H]1c1ncc(-c2cc(F)c3c(c2)OC(c2cnc(C4CC4C)s2)n2c-3cc3cc(-c4cnc([C@@H]5CCCN5C(=O)[C@@H](NC(=O)OC)C(C)C)[nH]4)ccc32)[nH]1)C(C)C (mixture of isomers) [Compound 491]	2.9 pM	0.01 nM	0.013 nM	0.3 nM	2.6 pM					
CCC(CC)c1ncc(C2Oc3cc(-c4cnc([C@@H]5CCCN5C(=O)[C@@H](NC(=O)OC)C(C)C)[nH]4)cc(F)c3-c3cc4cc(-c5cnc([C@@H]6CCCN6C(=O)[C@@H](NC(=O)OC)C(C)C)[nH]5)ccc4n32)s1 (mixture of isomers) [Compound 524]	3 pM	0.008 nM	0.105 nM	0.183 nM	2 pM					
COC(=O)N[C@H](C(=O)N1CCC[C@H]1c1ncc(-c2cc(F)c3c(c2)OC(c2cncs2)n2c-3cc3cc(-c4cnc([C@@H]5CCCN5C(=O)[C@@H](NC(=O)OC)C(C)C)[nH]4)ccc32)[nH]1)C(C)C (single isomer, unassigned) [Compound 2]	3.5 pM	6.95 nM		38.3 nM	30 pM	2.31 nM				
COC(=O)N[C@H](C(=O)N1CCC[C@H]1c1ncc(-c2cc(F)c3c(c2)OC(c2cnns2)n2c-3cc3cc(-c4cnc([C@@H]5CCCN5C(=O)[C@@H](NC(=O)OC)C(C)C)[nH]4)ccc32)[nH]1)C(C)C (single isomer, unassigned) [Compound 3]	1.5 pM			1.05 nM	2 pM	0.14 nM	0.048 nM			
COC(=O)N[C@H](C(=O)N1CCC[C@H]1c1ncc(-c2cc(F)c3c(c2)OC(c2cnc(C4CC4)s2)n2c-3cc3cc(-c4cnc([C@@H]5CCCN5C(=O)[C@@H](NC(=O)OC)C(C)C)[nH]4)ccc32)[nH]1)C(C)C (single isomer, unassigned) [Compound 10]				0.097 nM	2 pM	0.011 nM	0.0035 nM	1.4 pM		
COC(=O)N[C@H](C(=O)N1CCC[C@H]1c1ncc(-c2cc(F)c3c(c2)OC(c2cnc(OC)s2)n2c-3cc3cc(-c4cnc([C@@H]5CCCN5C(=O)[C@@H](NC(=O)OC)C(C)C)[nH]4)ccc32)[nH]1)C(C)C (single isomer, unassigned) [Compound 14]				0.115 nM	2 pM	0.015 nM	0.0034 nM	1.4 pM		
COC(=O)N[C@H](C(=O)N1CCC[C@H]1c1ncc(-c2cc(F)c3c(c2)OC(c2cnc(C(F)F)s2)n2c-3cc3cc(-c4cnc([C@@H]5CCCN5C(=O)[C@@H](NC(=O)OC)C(C)C)[nH]4)ccc32)[nH]1)C(C)C (single isomer, unassigned) [Compound 20]	1.5 pM			0.01 nM	1 pM	0.008 nM	0.0083 nM			
COC(=O)N[C@H](C(=O)N1CCC[C@H]1c1ncc(-c2cc(F)c3c(c2)OC(c2cnc(C4CCCC4)s2)n2c-3cc3cc(-c4cnc([C@@H]5CCCN5C(=O)[C@@H](NC(=O)OC)C(C)C)[nH]4)ccc32)[nH]1)C(C)C (single isomer, unassigned) [Compound 25]	2.5 pM			0.07 nM	1 pM	0.014 nM	0.0025 nM			
COC(=O)NC(C(=O)N1[C@@H]2C[C@@H]2C[C@H]1c1ncc(-c2ccc3c(c2)cc2n3C(c3cnc(C4CC4)s3)Oc3cc(-c4cnc([C@@H]5CCCN5C(=O)[C@@H](NC(=O)OC)C(C)C)[nH]4)cc(F)c3-2)[nH]1)C(C)(C)F (single isomer, unassigned) [Compound 27]	1.6 pM				2 pM	0.009 nM	0.0037 nM		0.02 nM	
COC(=O)NC(C(=O)N1[C@@H]2C[C@@H]2C[C@H]1c1ncc(-c2ccc3c(c2)cc2n3C(c3cnc(C4CC4)s3)Oc3cc(-c4cnc([C@@H]5CCCN5C(=O)[C@@H](NC(=O)OC)C(C)C)[nH]4)cc(F)c3-2)[nH]1)C(C)(C)F (single isomer, unassigned) [Compound 28]						0.204 nM	0.115 nM	1.2 pM	0.908 nM	2 pM
COC(=O)NC(C(=O)N1CCC[C@H]1c1ncc(-c2ccc3c(c2)cc2n3C(c3cnc(C)s3)Oc3cc(-c4cnc([C@@H]5CCCN5C(=O)[C@@H](NC(=O)OC)C(C)C)[nH]4)cc(F)c3-2)[nH]1)C1C[C@@H](C)O[C@@H](C)C1 (single isomer, unassigned) [Compound 30]				0.112 nM	3 pM	0.014 nM	0.0118 nM	2.8 pM		
COC(=O)N[C@H](C(=O)N1CCC[C@H]1c1ncc(-c2cc(F)c3c(c2)OC(c2cnc(-c4ccc(F)cc4)s2)n2c-3cc3cc(-c4cnc([C@@H]5CCCN5C(=O)[C@@H](NC(=O)OC)C(C)C)[nH]4)ccc32)[nH]1)C(C)C (single isomer, unassigned) [Compound 31]	1.2 pM			0.046 nM	1 pM	0.004 nM	0.0063 nM			
COC(=O)N[C@H](C(=O)N1CCC[C@H]1c1ncc(-c2cc(F)c3c(c2)OC(c2ncc(-c4ccc(F)cc4)s2)n2c-3cc3cc(-c4cnc([C@@H]5CCCN5C(=O)[C@@H](NC(=O)OC)C(C)C)[nH]4)ccc32)[nH]1)C(C)C (single isomer, unassigned) [Compound 33]	1.7 pM				1 pM	0.746 nM	1.18 nM		1.67 nM	
COC(=O)N[C@H](C(=O)N1CCC[C@H]1c1ncc(-c2cc(F)c3c(c2)OC(c2ncc(-c4ccc(F)cc4)s2)n2c-3cc3cc(-c4cnc([C@@H]5CCCN5C(=O)[C@@H](NC(=O)OC)C(C)C)[nH]4)ccc32)[nH]1)C(C)C (single isomer, unassigned) [Compound 34]						0.022 nM	0.0331 nM	2.2 pM	0.144 nM	1 pM
CCc1ncc(C2Oc3cc(-c4cnc([C@@H]5CCCN5C(=O)[C@@H](NC(=O)OC)C(C)C)[nH]4)cc(F)c3-c3cc4cc(-c5cnc([C@@H]6CCCN6C(=O)C(NC(=O)OC)C6C[C@@H](C)O[C@@H](C)C6)[nH]5)ccc4n32)s1 (single isomer, unassigned) [Compound 36]				0.038 nM	3 pM	0.005 nM	0.004 nM	2.5 pM		
CCc1ncc(C2Oc3cc(-c4cnc([C@@H]5CCCN5C(=O)[C@@H](NC(=O)OC)C(C)C)[nH]4)cc(F)c3-c3cc4cc(-c5cnc([C@@H]6CCCN6C(=O)C(NC(=O)OC)C6CCOC(C)(C)C6)[nH]5)ccc4n32)s1 (single isomer, unassigned) [Compound 40]				0.03 nM	3 pM	0.006 nM	0.0039 nM	3.5 pM		
COC(=O)N[C@H](C(=O)N1CCC[C@H]1c1ncc(-c2cc(F)c3c(c2)OC(c2cnc(C4CC4)s2)n2c-3c(F)c3cc(-c4cnc([C@@H]5CCCN5C(=O)[C@@H](NC(=O)OC)C5CCOCC5)[nH]4)ccc32)[nH]1)C(C)C (single isomer, unassigned) [Compound 41]	1.7 pM				2 pM	0.04 nM	0.126 nM		1.01 nM	
